Patent US20230218563A1, “METHODS FOR TREATING OR PREVENTING CHRONIC KIDNEY DISEASE” (Arthrosi Therapeutics, Inc., priority 2020, published 2023)
Values joined by “and” are separate entries in the source; they are usually repeats but may differ in a detail not shown here. Equal values may be shown once. “Also recorded” adds a separate entry of the source. Read-outs that look alike come from different tables or passages of the source.

Columns and labels:
[1] = In vitro metabolism in human liver microsomes; assay type: in vitro ADME
Protocol: After pre-warming the mixture at 37° C. for 5 minutes, the reaction was initiated by the addition of 1 mM of NADPH and incubated for 60 minutes at 37° C. in a shaking water bath. The reaction was terminated by the addition of 0.5 mL ice-cold acetonitrile. Time 0 incubation was also performed by adding acetonitrile before the addition of microsomes to the incubation mixture as a reference sample for each species. Following vortex and centrifugation at 15,000 g for 3 minutes at room temperature, resulting supernatant was concentrated under nitrogen flow at 33° C., until approximately 0.5 mL of sample remained. The extract was then transferred to a 1.5-mL centrifuge vial for centrifugation at 15,000 g for 3 minutes. Finally, aliquots of the supernatant were transferred to HPLC vials for HPLC-MS analyses.
MS Analysis: Mass spectral analyses were performed on an Agilent single quadruple mass spectrometer equipped with an Agilent 1100 HPLC system. The mass spectrometer was fitted with an electrospray ionization (ESI) source and operated in a negative scan mode between 400 and 500 amu: […]

[2] = 4-week toxicity study in Sprague-Dawley rats; assay type: in vivo
From the text: On Day 29, surviving TS animals (all animals in study) were euthanized and subjected to a full gross necropsy, which included a macroscopic examination of the external surface of the body, all orifices, cranial cavity, external surface of the brain, the thoracic, abdominal and pelvic cavities and their viscera, cervical areas, carcass and genitalia. Organs were weighed as soon as possible from all main study animals at the scheduled necropsies. Tissues from Groups 1 and 5 animals at the terminal sacrifice, from animals found dead or moribund-sacrificed, and gross lesions from all animals, were embedded in paraffin, sectioned, stained with hematoxylin and eosin and examined microscopically by a board certified veterinary pathologist.

[3] = Phase 1 single dose study, plasma pharmacokinetics in healthy adult males; assay type: in vivo, human; settings: for AUC(0-t) / AUC(0-inf) / Tmax / Vd/F / half-life / Cmax: male, human, plasma, po; for Vd/F: read-out: Vz/F
Protocol: The dose groups included Cohort 1 (15 mg or placebo, fasted, oral suspension), Cohort 2 (50 mg or placebo, fasted, suspension), Cohort 3 (100 mg or placebo, fasted, oral suspension), Cohort 4 (150 mg or placebo, fasted, oral suspension), Cohort 6 (50 mg or placebo, fed, oral suspension), and Cohort 7 (50 mg or placebo, fasted, oral capsule). […] An additional 8 subjects received placebo.
The results are consistent with observation in animal testing and higher exposure of S-enantiomer was attributed to the conversion of the R-enantiomer in vivo.

serum uric acid (sUA) = test: Phase 1 multiple ascending dose study, pharmacodynamics (serum uric acid) in healthy adult males; assay type: in vivo, human; settings: for reduction of sUA concentration at trough / reduction of sUA concentration, maximum: fasted, Day 10
From the text: An additional 6 subjects received placebo.
Steady-state sUA lowering effect was achieved after approximately 5 days.

[4] = Phase 2a study, safety and tolerability in gout patients; assay type: in vivo, human; settings: 50 mg once daily
From the text: Urine samples were collected for assessment of uric acid excretion. Laboratory safety tests, vital signs, and electrocardiograms were collected throughout the study.

[5] = rats, oral gavage 2, 5, 15 and 50 mg/kg/day, 28 days
[6] = 15 mg single oral, fasted, suspension (C1)
[7] = 50 mg single oral, fasted, IR capsule (C7)
[8] = 50 mg single oral, fasted, suspension (C2)
[9] = 50 mg single oral, fed vs fasted
[10] = 50 mg single oral, fed, suspension (C6)
[11] = 100 mg single oral, fasted, suspension (C3)
[12] = 150 mg single oral, fasted, suspension (C4)
[13] = dose proportionality, 15 to 150 mg fasted

[2H]c1c([2H])c([2H])c2c(C(=O)c3cc(Br)c(O)c(Br)c3)c(C(C)O)oc2c1[2H] (racemic) [Compound 1, (3,5-dibromo-4-hydroxyphenyl)(2-(1-hydroxyethyl)benzofuran-3-yl-4,5,6,7-d4)methanone]
stability in human microsomes ([1]; 60 minutes incubation): stable; also recorded: more stable than benzbromarone
Parent, % MS response (parent left) ([1]; human liver microsomes 0.5 mg/mL, NADPH, 60 minutes, 37° C.): 82.5%
NOAEL at 28 days ([2]; Sprague-Dawley, rat, in vivo, po): 50 mg/kg
NOAEL, human equivalent ([2]; rat, in vivo): 500 mg
dose with kidney weight increase, female ([2]; rats, 28 days oral): 50 mg/kg/day
dose with liver weight increase, female ([2]; rats, 28 days oral): ≥ 15 mg/kg/day
dose with liver weight increase, male ([2]; rats, 28 days oral): 50 mg/kg/day
findings at high or mid-high dose after 4 week recovery period ([2]; rats, 28 days oral then 4 week recovery): resolved
clinical signs [2, 5]: No abnormal clinical signs
effect on food consumption, body weight [2, 5]: no effect
mortality [2, 5]: No mortality
CL/F [3, 6]: 1.02 L/h
Cmax (total) [3, 6]: 1060 ng/mL
CL/F [3, 7]: 1.01 L/h
Cmax (total) [3, 7]: 3970 ng/mL
CL/F [3, 8]: 0.906 L/h
Cmax (total) [3, 8]: 3330 ng/mL
change of Cmax in the fed state [3, 9]: ~33%
decrease of AUC with food [3, 9]: approximately 13%
CL/F [3, 10]: 1.03 L/h
Cmax (total) [3, 10]: 2210 ng/mL
Tmax (median) [3, 10]: 8 h and 8.00 h
CL/F [3, 11]: 1.04 L/h
Cmax (total) [3, 11]: 5510 ng/mL
CL/F [3, 12]: 0.944 L/h
Cmax (total) [3, 12]: 8330 ng/mL
Power model intercept, AUCinf (μg · h/mL) [3, 13]: 0.944
Power model intercept, Cmax (μg/mL) [3, 13]: 0.0966
AUC(0-t) ([3]; 15 mg, 15 mg single oral, fasted, suspension (C1), read-out: AUC0-24 (total)): 12100 ng·h/mL
AUC(0-inf) ([3]; 15 mg, 15 mg single oral, fasted, suspension (C1), read-out: AUCinf (total)): 15000 ng·h/mL
Tmax ([3]; 15 mg, 15 mg single oral, fasted, suspension (C1), read-out: Tmax (median)): 3.5 h
Vd/F ([3]; 15 mg, 15 mg single oral, fasted, suspension (C1)): 14.1 L
half-life ([3]; 15 mg, 15 mg single oral, fasted, suspension (C1), read-out: t1/2 (converted)): 9.69 h
AUC(0-t) ([3]; 50 mg, 50 mg single oral, fasted, IR capsule (C7), read-out: AUC0-24 (total)): 41900 ng·h/mL
AUC(0-inf) ([3]; 50 mg, 50 mg single oral, fasted, IR capsule (C7), read-out: AUCinf (total)): 51300 ng·h/mL
Tmax ([3]; 50 mg, 50 mg single oral, fasted, IR capsule (C7), read-out: Tmax (median)): 1.75 h
Vd/F ([3]; 50 mg, 50 mg single oral, fasted, IR capsule (C7)): 14.9 L
half-life ([3]; 50 mg, 50 mg single oral, fasted, IR capsule (C7), read-out: t1/2 (converted)): 10.5 h
AUC(0-t) ([3]; 50 mg, 50 mg single oral, fasted, suspension (C2), read-out: AUC0-24 (total)): 42600 ng·h/mL
AUC(0-inf) ([3]; 50 mg, 50 mg single oral, fasted, suspension (C2), read-out: AUCinf (total)): 59600 ng·h/mL
Tmax ([3]; 50 mg, 50 mg single oral, fasted, suspension (C2), read-out: Tmax (median)): 3 h
Vd/F ([3]; 50 mg, 50 mg single oral, fasted, suspension (C2)): 16 L
half-life ([3]; 50 mg, 50 mg single oral, fasted, suspension (C2), read-out: t1/2 (converted)): 12.5 h
AUC(0-inf) ([3]; 50 mg, 50 mg single oral, fasted, read-out: Geometric Least Squares Mean AUCinf, Fasted): 57400 ng·h/mL
AUC(0-t) ([3]; 50 mg, 50 mg single oral, fasted, read-out: Geometric Least Squares Mean AUClast, Fasted): 57100 ng·h/mL
Cmax ([3]; 50 mg, 50 mg single oral, fasted, read-out: Geometric Least Squares Mean Cmax, Fasted): 3250 ng/mL
Cmax ([3]; 50 mg, 50 mg single oral, fed (high-fat, high-calorie meal), read-out: Geometric Least Squares Mean Cmax, Fed): 2170 ng/mL
AUC(0-t) ([3]; 50 mg, 50 mg single oral, fed, suspension (C6), read-out: AUC0-24 (total)): 34000 ng·h/mL
AUC(0-inf) ([3]; 50 mg, 50 mg single oral, fed, suspension (C6), read-out: AUCinf (total)): 51200 ng·h/mL
Tmax ([3]; 50 mg, 50 mg single oral, fed, suspension (C6), read-out: Tmax (median)): 8 h
Vd/F ([3]; 50 mg, 50 mg single oral, fed, suspension (C6)): 16.3 L
half-life ([3]; 50 mg, 50 mg single oral, fed, suspension (C6), read-out: t1/2 (converted)): 11.7 h
AUC(0-inf) ([3]; 50 mg, 50 mg single oral, fed, read-out: Geometric Least Squares Mean AUCinf, Fed): 49900 ng·h/mL
AUC(0-t) ([3]; 50 mg, 50 mg single oral, fed, read-out: Geometric Least Squares Mean AUClast, Fed): 49600 ng·h/mL
AUC(0-t) ([3]; 100 mg, 100 mg single oral, fasted, suspension (C3), read-out: AUC0-24 (total)): 71000 ng·h/mL
AUC(0-inf) ([3]; 100 mg, 100 mg single oral, fasted, suspension (C3), read-out: AUCinf (total)): 99700 ng·h/mL
Tmax ([3]; 100 mg, 100 mg single oral, fasted, suspension (C3), read-out: Tmax (median)): 4 h
Vd/F ([3]; 100 mg, 100 mg single oral, fasted, suspension (C3)): 18.6 L
half-life ([3]; 100 mg, 100 mg single oral, fasted, suspension (C3), read-out: t1/2 (converted)): 12.5 h
AUC(0-t) ([3]; 150 mg, 150 mg single oral, fasted, suspension (C4), read-out: AUC0-24 (total)): 114000 ng·h/mL
AUC(0-inf) ([3]; 150 mg, 150 mg single oral, fasted, suspension (C4), read-out: AUCinf (total)): 173000 ng·h/mL
Tmax ([3]; 150 mg, 150 mg single oral, fasted, suspension (C4), read-out: Tmax (median)): 4 h
Vd/F ([3]; 150 mg, 150 mg single oral, fasted, suspension (C4)): 15.5 L
half-life ([3]; 150 mg, 150 mg single oral, fasted, suspension (C4), read-out: t1/2 (converted)): 12 h
Tmax ([3]; single oral dose, fasted conditions, read-out: median Tmax, range over doses): 3 to 5 h
half-life ([3]; single oral doses 15 to 150 mg, read-out: average terminal half-life): 10 to 13 h
total plasma clearance ([3]; single oral doses 15 to 150 mg): approximately 1.0 L/hr
volume of distribution ([3]; single oral doses 15 to 150 mg): 14 to 18 L
reduction of sUA concentration at trough (serum uric acid (sUA); 25 mg oral capsules once daily): 41%
reduction of sUA concentration, maximum (serum uric acid (sUA); 25 mg oral capsules once daily): up to 44%
reduction of sUA concentration at trough (serum uric acid (sUA); 50 mg oral capsules once daily): 58%
reduction of sUA concentration, maximum (serum uric acid (sUA); 50 mg oral capsules once daily): up to 67%
reduction of sUA concentration at trough (serum uric acid (sUA); 75 mg oral capsules once daily): 65%
reduction of sUA concentration, maximum (serum uric acid (sUA); 75 mg oral capsules once daily): up to 69%
time to steady-state sUA lowering effect (serum uric acid (sUA); once-daily 25, 50 or 75 mg): approximately 5 days
laboratory or ECG abnormalities [4]: no clinically significant laboratory or ECG abnormalities
tolerability [4]: well tolerated
